Where two headings read alike, the source gives them in different places.
Molecular target: T1, Rec. human COMT (Homo sapiens, UniProt P21964)
T1 sequence (P21964 1-271): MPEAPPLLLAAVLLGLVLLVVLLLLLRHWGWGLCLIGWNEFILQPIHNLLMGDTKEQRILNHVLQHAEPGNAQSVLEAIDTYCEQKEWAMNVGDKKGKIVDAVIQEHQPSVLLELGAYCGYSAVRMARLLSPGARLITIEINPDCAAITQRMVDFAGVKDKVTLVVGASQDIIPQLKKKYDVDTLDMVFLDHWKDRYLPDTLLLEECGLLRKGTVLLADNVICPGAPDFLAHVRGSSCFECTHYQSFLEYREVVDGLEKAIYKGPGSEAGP
Assay: COMT-Fluorescence Assay
Format: biochemical
Conditions: rec. human COMT 25 nM, 4-Nitrocatechol-Alexa488 200 nM, SAM 500 nM
Protocol: This intramolecular interaction is disturbed if the 4-Nitrocatechol is methylated. […] This increase of fluorescence intensity can be followed in a kinetic measurement. The slope in the linear range of the kinetic is calculated. An inhibitor compound decreases the slope.
Signal [rfu/min]=(rfu(end-point)−rfu(startpoint))/incubation_time_#2

[1] = COMT-fluorescence assay, read-out: IC50

IC50 [1] [nM]	IC50 (IC50, COMT-fluorescence assay) [nM]	SMILES
970		Cc1c(-c2cc(O)c3nc[nH]c(=O)c3c2)c(C(F)(F)F)nn1C [Example 95, 6-(1,5-Dimethyl-3-(trifluoromethyl)-1H-pyrazol-4-yl)-8-hydroxyquinazolin-4(3H)-one]
30		Cn1ncc2cc(-c3cc(O)c4nc[nH]c(=O)c4c3)ccc21 [Example 96, 8-Hydroxy-6-(1-methyl-1H-indazol-5-yl)quinazolin-4(3H)-one]
10		Cc1cc(C(=O)N2CCCCC2)sc1-c1cc(O)c2nc[nH]c(=O)c2c1 [Example 97, 8-Hydroxy-6-(3-methyl-5-(piperidine-1-carbonyl)thiophen-2-yl)quinazolin-4(3H)-one]
40		O=c1[nH]cnc2c(O)cc(-c3ccccc3Cc3ccccc3)cc12 [Example 98, 6-(2-Benzylphenyl)-8-hydroxyquinazolin-4(3H)-one]
50		O=c1[nH]cnc2c(O)cc(-c3ccc(S(F)(F)(F)(F)F)cc3)cc12 [Example 100, 6-(4-Pentafluorosulfanylphenyl)-8-hydroxyquinazolin-4(3H)-one]
10		O=c1[nH]cnc2c(O)cc(-c3ccc(F)cc3)c(Cl)c12 [Example 101, 5-Chloro-6-(4-fluorophenyl)-8-hydroxyquinazolin-4(3H)-one]
10		COCc1nc(NC(=O)C(C)(C)C)ccc1-c1cc(O)c2nc[nH]c(=O)c2c1 [Example 104, N-(5-(8-Hydroxy-4-oxo-3,4-dihydroquinazolin-6-yl)-6-(methoxymethyl)pyridin-2-yl)pivalamide]
20		COCc1cc(C(=O)N(CCN(C(C)C)C(C)C)C(C)C)ccc1-c1cc(O)c2nc[nH]c(=O)c2c1 [Example 106, N-(2-(Diisopropylamino)ethyl)-4-(8-hydroxy-4-oxo-3,4-dihydroquinazolin-6-yl)-N-isopropyl-3-(methoxymethyl)benzamide 2,2,2-trifluoroacetate]
80		CC(C)N1CCc2c(cccc2-c2cc(O)c3nc[nH]c(=O)c3c2)C1 [Example 108, 8-Hydroxy-6-(2-isopropyl-1,2,3,4-tetrahydroisoquinolin-5-yl)quinazolin-4(3H)-one 2,2,2-trifluoroacetate]
20		COCc1ncccc1-c1cc(O)c2nc[nH]c(=O)c2c1 [Example 110, 8-Hydroxy-6-(2-(methoxymethyl)pyridin-3-yl)quinazolin-4(3H)-one bis(2,2,2-trifluoroacetate)]
	170	CC(=O)c1ccccc1-c1cc(O)c2nc[nH]c(=O)c2c1 [Example 112, 6-(2-Acetylphenyl)-8-hydroxyquinazolin-4(3H)-one]
	50	CS(=O)(=O)Cc1ccccc1-c1cc(O)c2nc[nH]c(=O)c2c1 [Example 115, 8-Hydroxy-6-(2-(methylsulfonylmethyl)phenyl)quinazolin-4(3H)-one 2,2,2-trifluoroacetate]
180		CS(=O)(=O)CCc1ccccc1-c1cc(O)c2nc[nH]c(=O)c2c1 [Example 116, 8-Hydroxy-6-(2-(2-(methylsulfonyl)ethyl)phenyl)quinazolin-4(3H)-one 2,2,2-trifluoroacetate]
40		O=c1[nH]cnc2c(O)cc(Br)c(Cl)c12 [Example 117, 6-Bromo-5-chloro-8-hydroxyquinazolin-4(3H)-one]
30		O=c1[nH]cnc2c(O)cc(-c3ccccc3COCCN3CCN(CC(F)(F)F)CC3)cc12 [Example 121, 8-Hydroxy-6-(2-((2-(4-(2,2,2-trifluoroethyl)piperazin-1-yl)ethoxy)methyl)phenyl)quinazolin-4(3H)-one 2,2,2-trifluoroacetate]
10		O=c1[nH]cnc2c(O)cc(-c3ccc(F)cc3)c(Br)c12 [Example 122, 5-Bromo-6-(4-fluorophenyl)-8-hydroxyquinazolin-4(3H)-one]
10		O=c1[nH]cnc2c(O)c(F)c(-c3ccc(F)cc3)c(-c3ccc(F)cc3)c12 [Example 123, 7-Fluoro-5,6-bis(4-fluorophenyl)-8-hydroxyquinazolin-4(3H)-one]
140		O=c1[nH]cnc2c(O)cc(Br)cc12 [Example 126, 6-Bromo-8-hydroxyquinazolin-4(3H)-one]
20		Cc1cc(F)ccc1-c1cc(O)c2nc[nH]c(=O)c2c1 [Example 127, 6-(4-Fluoro-2-methylphenyl)-8-hydroxyquinazolin-4(3H)-one]
	20	O=c1[nH]cnc2c(O)cc(-c3ccccc3Cl)cc12 [Example 132, 6-(2-Chlorophenyl)-8-hydroxyquinazolin-4(3H)-one]
	20	O=c1[nH]cnc2c(O)cc(-c3ccc(F)cc3F)cc12 [Example 133, 6-(2,4-Difluorophenyl)-8-hydroxyquinazolin-4(3H)-one]
3210		Cc1c(Br)cc2c(=O)[nH]cnc2c1O [Example 136, 6-Bromo-8-hydroxy-7-methylquinazolin-4(3H)-one]
60		O=c1[nH]cnc2c(O)cc(I)cc12 [Example 137, 8-Hydroxy-6-iodo-3H-quinazolin-4-one]

The next lines start with the molecule.

SMILES	IC50 [1] [nM]	IC50 (IC50, COMT-fluorescence assay) [nM]
O=C(c1ccccc1)c1ccccc1-c1cc(O)c2nc[nH]c(=O)c2c1 [Example 99, 6-(2-Benzoylphenyl)-8-hydroxyquinazolin-4(3H)-one]	100	
O=c1[nH]cnc2c(O)cc(-c3ccc(F)cc3)c(-c3ccc(F)cc3)c12 [Example 102, 5,6-Bis(4-fluorophenyl)-8-hydroxyquinazolin-4(3H)-one]	1	
Cc1cc(C(=O)N2CCN(C)CC2)sc1-c1cc(O)c2nc[nH]c(=O)c2c1 [Example 103, 8-Hydroxy-6-[3-methyl-5-(4-methyl-piperazine-1-carbonyl)-thiophen-2-yl]-3H-quinazolin-4-one]	10	
Cc1cc(-c2c(Br)cc(O)c3nc[nH]c(=O)c23)ccn1 [Example 105, 6-Bromo-8-hydroxy-5-(2-methylpyridin-4-yl)quinazolin-4(3H)-one]	70	
COCc1cc(CN2CCN(C(C)C)CC2)ccc1-c1cc(O)c2nc[nH]c(=O)c2c1 [Example 107, 8-Hydroxy-6-(4-((4-isopropylpiperazin-1-yl)methyl)-2-(methoxymethyl)phenyl)quinazolin-4(3H)-one tetrakis(2,2,2-trifluoroacetate)]	20	
COCc1cc(COC(=O)N2CCN(C(C)C)CC2)ccc1-c1cc(O)c2nc[nH]c(=O)c2c1 [Example 109, 4-(8-Hydroxy-4-oxo-3,4-dihydroquinazolin-6-yl)-3-(methoxymethyl)benzyl 4-isopropylpiperazine-1-carboxylate bis(2,2,2-trifluoroacetate)]	20	
CN1CCN(S(=O)(=O)c2cccc(-c3cc(O)c4nc[nH]c(=O)c4c3)c2)CC1 [Example 111, 8-Hydroxy-6-[3-(4-methyl-piperazine-1-sulfonyl)-phenyl]-3#H!-quinazolin-4-one; compound with trifluoro-acetic acid]	20	
CC(C)(O)c1ccccc1-c1cc(O)c2nc[nH]c(=O)c2c1 [Example 113, 8-Hydroxy-6-(2-(2-hydroxypropan-2-yl)phenyl)quinazolin-4(3H)-one]	3600	
CSCc1ccccc1-c1cc(O)c2nc[nH]c(=O)c2c1 [Example 114]	40	
O=c1[nH]cnc2c(O)cc(-c3ccccc3COCCC3CCN(CC(F)(F)F)CC3)cc12 [Example 118, 8-Hydroxy-6-(2-((2-(1-(2,2,2-trifluoroethyl)piperidin-4-yl)ethoxy)methyl)phenyl)quinazolin-4(3H)-one 2,2,2-trifluoroacetate]	10	
CS(=O)(=O)Cc1ccccc1-c1cc(O)c2nc[nH]c(=O)c2c1Cl [Example 119, 5-Chloro-8-hydroxy-6-(2-(methylsulfonylmethyl)phenyl)quinazolin-4(3H)-one]	610	
O=c1[nH]cnc2c(O)cc(-c3ccccc3COCCC3CCN(CC(F)(F)F)CC3)c(Cl)c12 [Example 120, 5-Chloro-8-hydroxy-6-(2-((2-(1-(2,2,2-trifluoroethyl)piperidin-4-yl)ethoxy)methyl)phenyl)quinazolin-4(3H)-one 2,2,2-trifluoroacetate]	90	
O=c1[nH]cnc2c(O)c(F)cc(-c3ccc(F)cc3)c12 [Example 124, 7-Fluoro-5-(4-fluorophenyl)-8-hydroxyquinazolin-4(3H)-one]	200	
O=c1[nH]cnc2c(O)cc(-c3ccc(F)cc3)cc12 [Example 125, 6-(4-Fluorophenyl)-8-hydroxyquinazolin-4(3H)-one]	20	
O=c1[nH]cnc2c(O)cc(-c3ccccc3)cc12 [Example 128, 8-Hydroxy-6-phenylquinazolin-4(3H)-one]	20	
O=c1[nH]cnc2c(O)cc(-c3ccc(O)cc3)cc12 [Example 129, 8-Hydroxy-6-(4-hydroxyphenyl)quinazolin-4(3H)-one]		30
Cc1ccc(-c2cc(O)c3nc[nH]c(=O)c3c2)cc1 [Example 130, 8-Hydroxy-6-p-tolylquinazolin-4(3H)-one]		30
O=c1[nH]cnc2c(O)cc(-c3ccc(Cl)cc3)cc12 [Example 131, 6-(4-Chlorophenyl)-8-hydroxyquinazolin-4(3H)-one]		40
Cc1cc(-c2cc(O)c3nc[nH]c(=O)c3c2)ccn1 [Example 134, 8-Hydroxy-6-(2-methylpyridin-4-yl)quinazolin-4(3H)-one]	10	
COc1ccc(-c2cc(O)c3nc[nH]c(=O)c3c2)cc1 [Example 135, 8-Hydroxy-6-(4-methoxy-phenyl)-3H-quinazolin-4-one]		10

From patent US9656971B2, “COMT inhibitors” (Hoffmann-La Roche Inc., priority 2012, dated 2017)
